Patent publication US7759313B2, “Induction method for cell differentiation” (Obschetstvo S Ogranichennoi Otvetstvennostiyu …, priority 2002, dated 2010)
Where “and” joins values, the source holds several entries; their conditions need not be identical. Equal entries are not always repeated. Entries after “also recorded” stand apart in the source; their conditions may differ. Where two headings read alike, the source gives them in different places.

Columns and labels:
[1] = Complete blood analysis of individual ovarian cancer patients; type: in vivo, human; conditions: for Platelets: in 10^9/L (unit assumed)
Protocol: (§1) The effect of Dicarbamine was studied in 13 patients with stage III-IV ovarian cancer who underwent 77 courses of the chemotherapy according to the scheme: 400 mg/m^2 Carboplatin i.v. drop-wise, once +600 mg/m^2 Cyclophosphan i.v. drop-wise, once; the courses were repeated in 28 days. Dicarbamine was prescribed daily at dose 100 mg orally after meals beginning 5 days prior to the first course and then for three weeks. Dosing duration was 26 days, course dose being 2600 mg. Dicarbamine was given again 5 days prior to the second chemotherapy course, and dosing was continued for 21 days. Total duration of Dicarbamine intake during two the chemotherapy courses was 52 days.
Hematopoiesis parameters were assessed dynamically many times before and after conducted the chemotherapy (control) as well as dynamically before and after Dicarbamine dosing in the test group. Below hematopoiesis parameters in individual patients who received the chemotherapy according to the indicated scheme with Dicarbamine or without it are presented.

[2] = Hematological toxicity according to WHO in ovarian cancer patients; type: in vivo, human
Protocol: as §1
Hematological toxicity (leukopenia, neutropenia, thrombocytopenia) was assessed in 13 patients who received 77 courses of the chemotherapy with Dicarbamine as compared with the group of 7 patients who received 25-27 courses of the chemotherapy without Dicarbamine (control).

[3] = system: hematopoietic cells of the bone marrow; experiment: Electronic microscopy of bone marrow of ovarian cancer patients during chemotherapy; type: in vivo, human; conditions: Cyclophosphane 600 mg/m^2 + Carboplatin 400 mg/m^2 along with Dicarbamine 100 mg
Protocol: The patients were divided into two equal groups: group I—patients who received the chemotherapy alone and group II—patients who received the chemotherapy along with Dicarbamine administration. […] The average chemotherapy course of one patient included 6 courses without Dicarbamine and 5.7 courses with Dicarbamine. In group II patients received the chemotherapy along with Dicarbamine dosing at a single dose 100 mg beginning 5 days before the first course and then until the beginning of next course at the same dose. […] Puncture biopsy of the bone marrow and peripheral blood for electronic microscopy were taken from patients prior to the chemotherapy and at the end of treatment course with Dicarbamine or without it. Fresh bone marrow puncture biopsies were placed on a slide plate and stirred many times with a stirring rod until small dense fragments were obtained. […] Semi-thin and ultra-thin slices were prepared on the LKB-III ultratome (Sweden). The semi-thin slices were stained with Methylene or Toluidine blue, ultra-thin slices were stained with an aqueous solution of uranyl acetate and lead citrate.

M-6 melanoma = experiment: Melanin genesis intensity in M-6 melanoma cells (electronic microscopy); type: in vivo, human; conditions: for Average amount of melanosomes per a cell / MGII / Number of cells with melanosomes (per 500 cells): 1.0 mg/kg daily
Protocol: The study was conducted on 10-12 week old thymus free (nude) female Balb/C mice weighing 20-22 grams (breeding of the Russian Cancer Research Center (RCRC) named after N. N. Blokhin of the Russian Academy of Medical Sciences (RAMS)). A human melanoma strain earlier obtained from primary clinical material was taken from the bank of tumor strains of the RCRC of the RAMS for transplantation to thymus free “nude” mice. Tumor was disintegrated by Versen solution with vital Trypan blue staining and inoculated subcutaneously to mice in the amount of 1.6 million cells per mouse.
Dicarbamine was administered to mice intragastrically using a metal probe daily at dose 1.0 mg/kg beginning 4 days before the tumor inoculation and thereafter for 10-11 days (administration course up to 15 days). The mice were sacrificed with ether anesthesia in 12, 24 and 48 hours after the last administration.
The effect of Dicarbamine on melanoma cell differentiation was assessed on the basis of the intensity of melanin genesis by counting the number of cells with melanin in the tumor slices. With this goal, tumors were excised from the mice, placed into glutaraldehyde and histologically processed for electronic microscopy. The Melanin Genesis Intensity Index (MGII), which reflects the degree of cell differentiation, was calculated in the prepared slices according to the following equation: MGII=NCM×NM,
wherein: NCM is the number of cells containing melanosomes;
NM is average number of melanosomes per a cell.

[4] = type: in vivo, mice
From the text: Two groups of mice are used.

[5] = with Dicarbamine, Day 0, before starting Dicarbamine
[6] = with Dicarbamine, Day 5, before starting course 1 of CT
[7] = with Dicarbamine, Day 21, after termination of Dicarbamine intake
[8] = with Dicarbamine, Day 33, before course 2 of CT
[9] = with Dicarbamine, course 2, Day 28 after course 1 of CT
[10] = with Dicarbamine, course 2, Day 33
[11] = with Dicarbamine, course 2, Day 54
[12] = with Dicarbamine, course 2, Day 61
[13] = vs chemotherapy without Dicarbamine

Question: What does the source list for `O=C(O)CCCC(=O)NCCc1c[nH]cn1` [Dicarbamine]?
Answer: Leukocytes ([1]; chemotherapy + Dicarbamine 100 mg daily, individual patients, course 1, Day 0, before starting Dicarbamine): 5.9 10^9/l and 7.4 10^9/l and 6.6 10^9/l; timing of the third course of CT ([1]; chemotherapy with Dicarbamine, individual patients): in time; also recorded: at term; Neutrophils [1, 5]: 4.2 10^9/l and 5.7 10^9/l and 5.0 10^9/l; Platelets [1, 5]: 170 and 174; Leukocytes [1, 6]: 5.5 10^9/l and 7.2 10^9/l and 5.9 10^9/l; Neutrophils [1, 6]: 4.0 10^9/l and 5.0 10^9/l and 4.2 10^9/l; Platelets [1, 6]: 164 and 165 and 172; Leukocytes [1, 7]: 4.7 10^9/l and 6.6 10^9/l and 5.5 10^9/l; Neutrophils [1, 7]: 3.3 10^9/l and 5.2 10^9/l and 4.4 10^9/l; Platelets [1, 7]: 160 and 162 and 166; Leukocytes [1, 8]: 4.0 10^9/l and 5.2 10^9/l and 5.0 10^9/l; Neutrophils [1, 8]: 2.9 10^9/l and 3.8 10^9/l and 3.4 10^9/l; Platelets [1, 8]: 158 and 167 and 164; Neutrophils [1, 9]: 3.2 10^9/l and 5.2 10^9/l and 3.0 10^9/l; Leukocytes ([1]; with Dicarbamine, course 2, Day 28 after course 1 of CT, before starting Dicarbamine): 4.9 10^9/l and 7.8 10^9/l and 5.6 10^9/l; Platelets [1, 9]: 180 and 165 and 170; Neutrophils [1, 10]: 3.3 10^9/l and 6.0 10^9/l and 3.2 10^9/l; Leukocytes ([1]; with Dicarbamine, course 2, Day 33, before starting course of CT): 5.0 10^9/l and 8.2 10^9/l and 5.8 10^9/l; Platelets [1, 10]: 170 and 160; Neutrophils [1, 11]: 3.1 10^9/l and 6.2 10^9/l and 3.4 10^9/l; Leukocytes ([1]; with Dicarbamine, course 2, Day 54, after termination of Dicarbamine intake): 4.2 10^9/l and 7.6 10^9/l and 5.7 10^9/l; Platelets [1, 11]: 160 and 162 and 176; Neutrophils [1, 12]: 3.0 10^9/l and 5.8 10^9/l and 3.2 10^9/l; Leukocytes ([1]; with Dicarbamine, course 2, Day 61, before course 3 of CT): 4.2 10^9/l and 7.2 10^9/l and 5.5 10^9/l; Platelets [1, 12]: 160 and 157 and 165; Leukopenia ([2]; WHO degree 0): 7.7%; Leukopenia, number ([2]; WHO degree 0): 6; Neutropenia ([2]; WHO degree 0): 31.3%; Neutropenia, number ([2]; WHO degree 0): 21; Thrombocytopenia ([2]; WHO degree 0): 35.5%; Thrombocytopenia, number ([2]; WHO degree 0): 27; Leukopenia ([2]; WHO degree I): 23.3%; Leukopenia, number ([2]; WHO degree I): 18; Neutropenia ([2]; WHO degree I): 17.9%; Neutropenia, number ([2]; WHO degree I): 12; Thrombocytopenia ([2]; WHO degree I): 42.1%; Thrombocytopenia, number ([2]; WHO degree I): 32; Leukopenia ([2]; WHO degree II): 55.8%; Leukopenia, number ([2]; WHO degree II): 43; Neutropenia ([2]; WHO degree II): 34.3%; Neutropenia, number ([2]; WHO degree II): 23; Thrombocytopenia ([2]; WHO degree II): 13.1%; Thrombocytopenia, number ([2]; WHO degree II): 10; Leukopenia ([2]; WHO degree III): 12.9%; Leukopenia, number ([2]; WHO degree III): 10; Neutropenia ([2]; WHO degree III): 7.4%; Neutropenia, number ([2]; WHO degree III): 5; Thrombocytopenia ([2]; WHO degree III): 7.8%; Thrombocytopenia, number ([2]; WHO degree III): 6; Leukopenia ([2]; WHO degree III + IV): 12.9%; Leukopenia, number ([2]; WHO degree III + IV): 10; Neutropenia ([2]; WHO degree III + IV): 16.4%; Neutropenia, number ([2]; WHO degree III + IV): 11; Thrombocytopenia ([2]; WHO degree III + IV): 9.1%; Thrombocytopenia, number ([2]; WHO degree III + IV): 7; Leukopenia, number ([2]; WHO degree IV): 0; Neutropenia ([2]; WHO degree IV): 8.9%; Neutropenia, number ([2]; WHO degree IV): 6; Thrombocytopenia ([2]; WHO degree IV): 1.3%; Thrombocytopenia, number ([2]; WHO degree IV): 1; decrease of hematological toxicity on the basis of leukopenia [2, 13]: 1.8 fold; decrease of hematological toxicity on the basis of neutropenia [2, 13]: 2.6 fold; decrease of hematological toxicity on the basis of thrombocytopenia [2, 13]: 2.2 fold; cells with apoptosis signs in bone marrow puncture biopsies [3]: rarely observed; Average amount of melanosomes per a cell (M-6 melanoma; 12 hours since withdrawal): 28.0; MGII (M-6 melanoma; 12 hours since withdrawal): 9.8; Number of cells with melanosomes (per 500 cells) (M-6 melanoma; 12 hours since withdrawal): 175.0; Average amount of melanosomes per a cell (M-6 melanoma; 24 hours since withdrawal): 35.0; MGII (M-6 melanoma; 24 hours since withdrawal): 14.7; Number of cells with melanosomes (per 500 cells) (M-6 melanoma; 24 hours since withdrawal): 210.0; Average amount of melanosomes per a cell (M-6 melanoma; 48 hours since withdrawal): 42.0; MGII (M-6 melanoma; 48 hours since withdrawal): 19.0; Number of cells with melanosomes (per 500 cells) (M-6 melanoma; 48 hours since withdrawal): 227.0; average increase of M-6 melanoma tumor cell differentiation degree (MGII) (M-6 melanoma; following a 15 day course): 2.2 fold; increase in the number of cells comprising melanosomes (M-6 melanoma; following a 15 day course): 1.3 fold; increase in the number of melanosomes (M-6 melanoma; following a 15 day course): 1.3 fold; MGII index increase vs control (M-6 melanoma; in 12 hours): 1.9 fold; MGII index increase vs control (M-6 melanoma; in 24 hours): 2.4 fold; MGII index increase vs control (M-6 melanoma; in 48 hours): 2.3 fold; Cellularity of bone marrow (number of cells) ([4]; CPH 200 mg/kg (Dicarbamine group: 0.5 mg/kg 5 days prior and 5 days after), day 3): 14.5 ± 3.43 millions; Cellularity of bone marrow (number of cells) ([4]; day 5 after CPH): 21.55 ± 1.92 millions; Cellularity of bone marrow (number of cells) ([4]; day 7 after CPH): 32.35 ± 3.57 millions; Cellularity of bone marrow (number of cells) ([4]; day 10 after CPH): 33.8 ± 3.85 millions; Cellularity of bone marrow (number of cells) ([4]; day 13 after CPH): 32.6 ± 5.22 millions; Cellularity of bone marrow (number of cells) ([4]; day 17 after CPH): 28.25 ± 3.02 millions; Cellularity of bone marrow (number of cells) ([4]; day 21 after CPH): 30.4 ± 2.75 millions
